“Also recorded” adds a separate entry of the source. Like-named read-outs stand apart in the source and are kept apart here.
What was measured:
[1] = system: yeast Hsp90 complex formation with human p50^Cdc37 or yeast Cdc37 protein; design: method as in PMID 11916974; settings: ref [39]; cited from earlier work
[2] = molecular target: (p)Hsp90-(p)p50^Cdc37 (Homo sapiens, UniProt P08238); experiment: ELISA complex formation, both proteins CK2-phosphorylated; settings: for disruption of the phosphorylated complex: CK2-phosphorylated complex; for IC50: ELISA, (p)Hsp90-(p)p50^Cdc37 (phosphorylated complex)
(p)Hsp90-(p)p50^Cdc37, sequence (P08238 whole entry): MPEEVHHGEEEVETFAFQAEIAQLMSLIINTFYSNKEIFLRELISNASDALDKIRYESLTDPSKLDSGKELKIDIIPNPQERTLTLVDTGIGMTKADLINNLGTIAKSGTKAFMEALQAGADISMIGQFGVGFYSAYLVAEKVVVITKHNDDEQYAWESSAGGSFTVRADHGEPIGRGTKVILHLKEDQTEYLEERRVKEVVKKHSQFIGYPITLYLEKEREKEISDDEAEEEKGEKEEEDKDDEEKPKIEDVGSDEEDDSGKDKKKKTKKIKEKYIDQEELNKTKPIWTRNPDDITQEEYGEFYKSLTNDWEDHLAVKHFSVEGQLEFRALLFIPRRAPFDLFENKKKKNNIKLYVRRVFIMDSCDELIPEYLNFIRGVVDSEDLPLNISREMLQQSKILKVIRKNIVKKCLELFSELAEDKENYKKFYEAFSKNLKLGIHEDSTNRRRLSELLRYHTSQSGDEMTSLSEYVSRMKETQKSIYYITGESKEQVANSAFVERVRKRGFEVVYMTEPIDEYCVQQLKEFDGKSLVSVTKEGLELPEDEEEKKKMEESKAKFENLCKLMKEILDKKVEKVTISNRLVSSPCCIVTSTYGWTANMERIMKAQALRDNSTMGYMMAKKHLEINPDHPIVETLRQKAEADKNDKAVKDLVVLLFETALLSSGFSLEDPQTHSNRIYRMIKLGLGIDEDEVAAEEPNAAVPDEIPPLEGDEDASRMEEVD
Experimental: (§2) Phosphorylation of full-length Hsp90β and p50^Cdc37 was performed using purified full-length CK2α. The reaction was carried out in a 2.5 mL volume containing 50 µM Hsp90β or p50^Cdc37, 0.5 µM CK2α, 0.5 mM ATP, 20 mM Tris (pH 7.5), 50 mM KCl, and 10 mM MgCl2, and was incubated for 1 h at 30 °C. Samples were removed for analysis of phosphorylation status, and the proteins were re-buffered into 50 mM HEPES (pH 7.5), 150 mM NaCl, and 1 mM DTT (ELISA), or into 50 mM HEPES (pH 7.5) for ITC, using PD-10 gravity columns (GE Healthcare). Dephosphorylation was performed using 2.5 units of FastAP (alkaline phosphatase from Thermo Scientific) in buffer containing 10 mM Tris (pH 8.0 at 37 °C), 5 mM MgCl2, 100 mM KCl, 0.02% Triton-X 100, and 0.5 mg/mL BSA for 1 h at 37 °C.
(§3) Purified GST-p50^Cdc37 (4 µM) or control (purified GST alone, 4 µM) was added to glutathione-coated 96-well plates (Pierce) in 100 μL protein buffer (50 mM HEPES, pH 7.5, 150 mM NaCl, 10 mM MgCl2, 0.05% Tween-20, and 0.1% BSA) and incubated for 1 h at room temperature (triplicate wells per sample). […] The mixtures were then added to the wells (100 μL per well, in triplicates) and incubated for 1 h at room temperature before washing. The wells were incubated with anti-His6-tag mAb (1 mg/mL stock, Abcam), diluted 1:2000 in antibody buffer (50 mM HEPES pH 7.5, 150 mM NaCl, 10 mM MgCl2, 0.05% Tween-20, and 1% BSA) for 1 h, followed by secondary antibody (horse anti-mouse HRP-conjugated IgG, Cell Signaling Technology), diluted 1:5000 in antibody buffer, for 1.5 h at room temperature. After washing three times with 1× HBS-T and two times with 1× HBS, 200 μL HRP substrate (SigmaFast OPD) was added per well. The plates were incubated at room temperature, and the absorbance was read at 450 nm after 15 min and 30 min using a SpectraMax 340 PC plate reader (Molecular Devices). For dose-response measurements, absorption values were corrected for unspecific binding of Hsp90 to immobilized GST, and the raw data were fit to equation (1), where f(I) is the fraction of complex remaining, [I] is the concentration of the inhibitor, IC50 is the half maximal inhibitory concentration against Hsp90-p50^Cdc37 complex formation, n is the Hill slope coefficient, min is the signal remaining at high inhibitor concentrations and max is the signal of the uninhibited complex. Corrected absorption values (ΔOD) for the uninhibited Hsp90-p50^Cdc37 complex (unphosphorylated and phosphorylated) were in the range of 0.4–1.0. Data were expressed relative to the respective max value of Equation (1). (1) f(I)=min+(max−min)/1+([I]/IC50)^n

[3] = molecular target: T1, hHsp90β-FL (Homo sapiens, UniProt P08238); experiment: ITC direct binding to full-length Hsp90β; settings: for Kd: unphosphorylated hHsp90β-FL, 30 °C, read-out: Observed Kd
T1 construct: The gene encoding human full-length Hsp90β was subcloned from T47D cell line cDNA; His6 (N); made in house; host or cells: E. coli BL21 Star (DE3)
Experimental: (§1) Binding of p50^Cdc37 and small molecules to Hsp90 was analyzed using a MicroCal iTC200 titration calorimeter (GE Healthcare). Compounds or p50^Cdc37 were titrated into a solution of Hsp90 using the following concentrations: p50^Cdc37 (200 µM) into Hsp90 (20 µM), nucleotides (600 µM) into Hsp90 (30 µM), inhibitors (300 µM) into Hsp90 (30 µM). […] All experiments were conducted in 50 mM HEPES pH 7.5, 10 mM MgCl2 at 30 °C. For titration of inhibitors, the buffer contained 5% DMSO. […] Generation of heat due to dilution was determined in separate experiments by diluting protein into buffer and subtracting these as blank values for each injection. Corrected heat values were fitted using a nonlinear least squares curve-fitting algorithm (Microcal Origin 7.0) to obtain the stoichiometry (n), binding constants (Ka, Kd), and change in enthalpy for each enzyme-ligand interaction (ΔH).

[4] = molecular target: h(p)Hsp90β-FL (Homo sapiens, UniProt P08238); experiment: ITC direct binding to CK2-phosphorylated full-length Hsp90β; settings: 30 °C, read-out: Observed Kd
h(p)Hsp90β-FL, sequence (P08238 whole entry): as above
Experimental: as §1

[5] = molecular target: T2, ΔHsp90β interaction with GST-p50^Cdc37 (Homo sapiens, UniProt P08238, DEL220-271/E274G/I272G/K273G/K275G); experiment: GST pull-down of ΔHsp90β with GST-p50^Cdc37; assay type: binding; settings: for effect on complex in GST pull-down: 1 mM nucleotide or 0.1 mM inhibitor, 15 min incubation, SDS-PAGE
T2 construct: human Hsp90β (1-724 Δ220-275); made in house; host or cells: E. coli BL21 Star (DE3) (ΔHsp90β); E. coli BL21 (DE3) (GST-p50Cdc37)
T2 sequence (P08238 with tags, fused parts or gaps DEL220-271/I272G/K273G/E274G/K275G): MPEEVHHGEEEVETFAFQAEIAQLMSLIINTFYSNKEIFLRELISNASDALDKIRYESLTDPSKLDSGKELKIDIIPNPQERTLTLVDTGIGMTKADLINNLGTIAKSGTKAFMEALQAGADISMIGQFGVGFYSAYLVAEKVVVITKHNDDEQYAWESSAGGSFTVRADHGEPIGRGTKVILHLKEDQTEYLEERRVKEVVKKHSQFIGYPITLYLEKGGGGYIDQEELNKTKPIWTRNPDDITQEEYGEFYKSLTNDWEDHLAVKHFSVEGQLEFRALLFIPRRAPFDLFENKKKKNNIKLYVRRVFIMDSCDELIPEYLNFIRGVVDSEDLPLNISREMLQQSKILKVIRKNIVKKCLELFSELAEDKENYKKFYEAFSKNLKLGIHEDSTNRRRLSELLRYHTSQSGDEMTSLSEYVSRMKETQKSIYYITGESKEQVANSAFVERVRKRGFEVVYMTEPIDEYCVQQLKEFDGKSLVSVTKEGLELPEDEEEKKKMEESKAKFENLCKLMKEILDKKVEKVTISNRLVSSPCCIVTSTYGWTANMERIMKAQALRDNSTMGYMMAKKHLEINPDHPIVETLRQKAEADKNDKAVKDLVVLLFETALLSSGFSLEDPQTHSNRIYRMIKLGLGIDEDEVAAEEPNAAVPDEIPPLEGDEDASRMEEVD
Experimental: GST pull-down experiments were carried out using 1 mL GST 4 FastFlow resin in 8 mL Flex columns (Kontes). All experiments were performed at room temperature by gravity flow. Loading and wash buffers contained 50 mM Tris pH 8, 50 mM KCl, 5 mM MgCl2, and 5% DMSO. The elution buffer contained an additional 10 mM reduced glutathione. […] The resin was washed with 20 CV wash buffer, and samples were eluted with 2 CV elution buffer. Eluted protein was analysed on 12% SDS-PAGE stained with Coomassie blue for visualization.

[6] = molecular target: T3, Hsp90-(p)p50^Cdc37 (Homo sapiens, UniProt P08238); experiment: ELISA complex formation, CK2-phosphorylated p50^Cdc37; assay type: binding
T3 construct: The gene encoding human full-length Hsp90β was subcloned from T47D cell line cDNA; made in house; host or cells: E. coli BL21 Star (DE3) (Hsp90β); E. coli BL21 (DE3) (GST-p50Cdc37)

[7] = molecular target: T4, Hsp90-p50^Cdc37 (Homo sapiens, UniProt P08238); experiment: ELISA complex formation, immobilized GST-p50^Cdc37 and Hsp90β, unphosphorylated; assay type: binding; settings: for IC50: ELISA, Hsp90-p50^Cdc37 (unphosphorylated); for inhibitory activity against the complex: unphosphorylated or phosphorylated complex, in vitro
T4 construct: The gene encoding human full-length Hsp90β was subcloned from T47D cell line cDNA; made in house; host or cells: E. coli BL21 Star (DE3) (Hsp90β); E. coli BL21 (DE3) (GST-p50Cdc37)

[8] = molecular target: hHsp90β-FL; settings: read-out: Reported Kd, cited from earlier work
[9] = molecular target: T5, ΔHsp90-p50^Cdc37 (Homo sapiens, UniProt P08238, DEL220-271/E274G/I272G/K273G/K275G); experiment: ELISA complex formation, ΔHsp90; assay type: binding
T5 construct: human Hsp90β (1-724 Δ220-275); made in house; host or cells: E. coli BL21 Star (DE3) (ΔHsp90β); E. coli BL21 (DE3) (GST-p50Cdc37)
T5 sequence (P08238 with tags, fused parts or gaps DEL220-271/I272G/K273G/E274G/K275G): as above

[10] = molecular target: T6, hΔHsp90β (Homo sapiens, UniProt P08238, DEL220-271/E274G/I272G/K273G/K275G); experiment: ITC direct binding to Hsp90β deletion mutant lacking the charged linker; settings: 50 mM HEPES pH 7.5, 10 mM MgCl2, 30 °C, read-out: Observed Kd
T6 construct: human Hsp90β (1-724 Δ220-275); His6 (N); made in house; host or cells: E. coli BL21 Star (DE3)
T6 sequence (P08238 with tags, fused parts or gaps DEL220-271/I272G/K273G/E274G/K275G): as above
Source text: The gene encoding human full-length Hsp90β was subcloned from T47D cell line cDNA, and human full-length CK2α was subcloned from MCF7 cell line cDNA, both a kind gift from Dr. Jonathan Lancaster, Moffitt Cancer Center. […] The deleted sections in the two Hsp90 genes were each replaced by four glycine residues. Hsp90α and Hsp90β were subcloned into the pET28a vector (Novagen), and p50^Cdc37 was subcloned into a modified pET28a vector containing a maltose-binding protein (MBP) solubility tag and a PreScission protease cleavage site using restriction enzymes BamHI and NotI (Fermentas) and T4 DNA ligase (Invitrogen) following the manufacturers’ instructions. BamHI was substituted with NdeI for full-length Hsp90β. p50^Cdc37 was also subcloned into the pGEX6P-1 vector (GE Healthcare) using the same procedure as above to provide an N-terminal GST-tag for GST pull-down and ELISA experiments. The plasmids were transformed into E. coli BL21 Star (DE3) (Hsp90α and Hsp90β, Invitrogen), Tuner (DE3) (p50^Cdc37 modified pET28a, Novagen), or BL21 (DE3) (p50^Cdc37 pGEX6P-1, Stratagene) expression strains. Transformed cells were grown in LB broth at 37 °C until the OD600 reached 0.4, then the temperature was lowered to 16 °C, and cells were induced with 0.1 mM IPTG at OD600 = 0.5–0.7. Cultures were then grown for 20–24 h before harvesting by centrifugation (30 min at 30,000× g, 4 °C).
as §1

[11] = molecular target: (p)Hsp90-p50^Cdc37 (Homo sapiens, UniProt P08238); experiment: ELISA complex formation, CK2-phosphorylated Hsp90β; settings: ELISA
(p)Hsp90-p50^Cdc37, sequence (P08238 whole entry): as the sequence (P08238 whole entry) above
Experimental: as §2, §3

[12] = system: Hsp90β-p50^Cdc37 complex; design: method as in PMID 19858214; settings: ref [26]; cited from earlier work
[13] = molecular target: T7, interaction of the N-terminal domain of Hsp90β with p50^Cdc37 (Homo sapiens, UniProt P08238); experiment: ITC of N-terminal Hsp90β with p50^Cdc37 in the presence of ADP; assay type: binding; settings: 5 mM ADP
T7 construct: human N-terminal Hsp90β (1-219, denoted Hsp90β-N); His6 (N); made in house; host or cells: E. coli BL21 Star (DE3) (Hsp90β-N); E. coli Tuner (DE3) (p50Cdc37)
T7 sequence (P08238 1-219): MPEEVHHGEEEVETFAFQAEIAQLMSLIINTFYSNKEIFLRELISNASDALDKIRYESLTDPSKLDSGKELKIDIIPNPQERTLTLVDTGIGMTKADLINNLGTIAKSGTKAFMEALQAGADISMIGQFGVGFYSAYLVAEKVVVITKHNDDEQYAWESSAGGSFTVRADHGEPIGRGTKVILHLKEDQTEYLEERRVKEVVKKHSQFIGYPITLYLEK
Experimental: Binding of p50^Cdc37 and small molecules to Hsp90 was analyzed using a MicroCal iTC200 titration calorimeter (GE Healthcare). Compounds or p50^Cdc37 were titrated into a solution of Hsp90 using the following concentrations: p50^Cdc37 (200 µM) into Hsp90 (20 µM), nucleotides (600 µM) into Hsp90 (30 µM), inhibitors (300 µM) into Hsp90 (30 µM). Titrations of compounds into p50^Cdc37 were performed with similar compound/protein ratios. All experiments were conducted in 50 mM HEPES pH 7.5, 10 mM MgCl2 at 30 °C. For titration of inhibitors, the buffer contained 5% DMSO. Typically, an initial 0.5 µL injection was followed by 19 injections of 2.2 µL of syringe solution (compound or p50^Cdc37) into a 200 µL protein solution of Hsp90 constantly stirred at 1000 rpm, and data were recorded for 180 s between injections. Generation of heat due to dilution was determined in separate experiments by diluting protein into buffer and subtracting these as blank values for each injection. Corrected heat values were fitted using a nonlinear least squares curve-fitting algorithm (Microcal Origin 7.0) to obtain the stoichiometry (n), binding constants (Ka, Kd), and change in enthalpy for each enzyme-ligand interaction (ΔH).

[14] = molecular target: yHsp82-FL; settings: yHsp82-FL; ref [34]; read-out: Reported Kd; cited from earlier work

Molecule | IC50 [2] | Kd [3] | Kd [4] | effect on complex in GST pull-down [5] | IC50 [7] | IC50 [9] | Kd [10] | IC50 ([11]; (p)Hsp90-p50^Cdc37) | Kd ([8]; ref [31]) | effect on complex formation between Hsp90β and p50^Cdc37 [12] | inhibitory activity against the complex [7] | other results
COC1=C2C[C@@H](C)C[C@H](OC)[C@H](O)[C@@H](C)/C=C(\C)[C@H](OC(N)=O)[C@@H](OC)/C=C\C=C(/C)C(=O)NC(=CC1=O)C2=O [geldanamycin] |  |  |  |  |  |  |  |  |  |  |  | influence on complex formation [1]: did not influence complex formation
C=CCNC1=C2C[C@@H](C)C[C@H](OC)[C@H](O)[C@@H](C)/C=C(\C)[C@H](OC(N)=O)[C@@H](OC)/C=C\C=C(/C)C(=O)NC(=CC1=O)C2=O [17-AAG, Tanespimycin] |  |  |  |  |  |  |  |  |  | showed no effect |  | 
(p)p50^Cdc37: human p50^Cdc37 phosphorylated by CK2 at residue Ser13 |  |  | 1.9 ± 0.13 µM |  |  |  |  |  |  |  |  | 
CCNC(=O)c1noc(-c2cc(C(C)C)c(O)cc2O)c1-c1ccc(CN2CCOCC2)cc1 [NVP-AUY922] |  |  |  |  |  |  |  |  |  |  | did not show appreciable inhibitory activity | Kd ([8]; ref [32]): 0.0017 µM
Nc1ncnc2c1ncn2[C@@H]1O[C@H](COP(=O)(O)OP(=O)(O)O)[C@@H](O)[C@H]1O [ADP] | 32 ± 5.6 µM | 8.9 µM | 13 µM | inhibited formation of the complex; also recorded: caused disruption of the complex | 500 ± 94 µM | 400 ± 81 µM | 11 µM | 220 ± 24 µM | 7.2 µM | did not exert inhibitory activity; also recorded: showed no effect |  | interaction of N-terminal Hsp90β with p50^Cdc37 in the presence of ADP [13]: abolished; IC50 [6]: 270 ± 35 µM; IC50 ([11]; span: phosphorylation of either Hsp90 or p50^Cdc37): 220 to 270 µM
C[C@@H]1C[C@H]2O[C@@H]2/C=C\C=C\C(=O)Cc2c(Cl)c(O)cc(O)c2C(=O)O1 [Radicicol] |  |  |  |  |  |  |  |  |  |  |  | Kd [14]: 0.019 µM
CO[C@H]1/C=C\C=C(/C)C(=O)NC2=CC(=O)C(NCCN(C)C)=C(C[C@@H](C)C[C@H](OC)[C@H](O)[C@@H](C)/C=C(\C)[C@@H]1OC(N)=O)C2=O [17-DMAG] |  |  |  |  |  |  |  |  |  | showed no effect |  | Kd ([8]; ref [33]): 0.35 µM

Now from value to molecule, other results behind:

IC50 [2] | Kd [3] | Kd [4] | effect on complex in GST pull-down [5] | IC50 [7] | IC50 [9] | Kd [10] | IC50 ([11]; (p)Hsp90-p50^Cdc37) | Molecule | Kd ([8]; ref [31]) | effect on complex formation between Hsp90β and p50^Cdc37 [12] | inhibitory activity against the complex [7] | other results
230 ± 40 µM | 4.6 µM | 11 µM | stable complex | > 1000 µM | > 1000 µM | 43 µM | 450 ± 150 µM | Nc1ncnc2c1ncn2[C@@H]1O[C@H](COP(=O)(O)OP(=O)(O)OP(=O)(O)O)[C@@H](O)[C@H]1O [ATP] | 240 µM |  |  | disruption of the phosphorylated complex [2]: remained largely ineffective; IC50 [6]: > 1000 µM
> 1000 µM | 85 µM | 590 µM |  | > 1000 µM | > 1000 µM | 84 µM | > 1000 µM | Nc1ncnc2c1ncn2[C@@H]1O[C@H](COP(=O)(O)OP(=O)(O)NP(=O)(O)O)[C@@H](O)[C@H]1O [AMP-PNP] | 148 µM |  | did not show appreciable inhibitory activity | disruption of the phosphorylated complex [2]: remained largely ineffective
> 1000 µM |  |  | ineffective | > 1000 µM | > 1000 µM |  | > 1000 µM | O=C(O)CCc1nn(Cc2ccc(Cl)cc2Cl)c2cc(C(F)(F)F)ccc12 [H2-GMZ, H2-gamendazole] |  |  | did not show appreciable inhibitory activity | binding potential towards Hsp90β ([3]; Figure 3): failed to display binding potential; protection of the complex from ADP in GST pull-down competition ([5]; in the presence of ADP, 0.1 mM radicicol): had no effect; inhibitory activity against the complex ([7]; listed as H2-gamendazole): did not affect the interaction of Hsp90 with p50^Cdc37 in vitro

From paper PMC4601640, “Stability of the Human Hsp90-p50^Cdc37 Chaperone Complex against Nucleotides and Hsp90 Inhibitors, and the Influence of Phosphorylation by Casein Kinase 2” (Molecules, 2015)
